Test results as given in PubChem BioAssay AID2060904 (Molecular Pharmacology Branch, DTP, NCI, 2025).

System: 349418-098-R-PDC complex spheroid viability
Assay: Anticancer human tumor 349418-098-R-PDC patient-derived lung adenocarcinoma cell line growth inhibition [RAS]
Conditions: for IC50: curve of first compound; for viability, T/C: stronger effect = lower value; active = viability on the fitted dose curve at most 10% of control; inactive = the rest
Source text: RAS pathway inhibitors in Combinations in Complex Spheroids
A high-throughput screen of multi-cell type tumor spheroids was designed to identify active combinations of RAS pathway inhibitors and targeted small molecules. Complex spheroids include a stromal component modeled by human endothelial cells (HUVEC) and fibroblasts modeled by human mesenchymal stem cells (MSCs). The concentration ranges selected for each drug and investigational agent were based upon clinically achievable concentrations if the clinical Cmax of the agent was known.
Compounds. The drugs and investigational agents: abemaciclib (NSC768073), cobimetinib (NSC768068), divarasib (GDC6063, NSC841802), docetaxel (NSC628503), GDC-1971 (RLY-1971, NSC841576), gemcitabine (NSC613327), inavolisib (NSC800729), ipatasertib (NSC767898), KB-0742 (NSC834161), MRTX-1133 (NSC836407), osimertinib (NSC779217), RMC-4630 (NSC839698), RMC-6236 (NSC851965), RMC-6291 (NSC852671), Ro-3306 (NSC812927), sapanisertib (NSC764658), SN-38 (NSC673596), staurosporine (NSC755774), SY5609 (NSC837396), and tovorafenib (DAY101, NSC766906), were obtained from the National Cancer Institute (NCI) Developmental Therapeutics Program Chemical Repository. The FDA-approved anticancer drug set is available from the NCI Developmental Therapeutics Program. […] The stock solutions were prepared in dimethyl sulfoxide (DMSO, Sigma-Aldrich, St. Louis, MO, cat. D2650) at 800-fold the tested concentration and stored at -70 degrees C prior to their use. All drugs and investigational agents were tested over a range starting from a high concentration at or near the clinical Cmax and decreasing in half-log increments. If the clinical Cmax for an agent had not been determined, the highest concentration tested was 10 microM.
Cell Culture. All cells were maintained in an incubator at 37 degrees C and 5% CO2 with 95% humidity. The PDC lines were cultured according to standard operating procedures established by the NCI PDMR. All PDCs were thawed and cultured in Matrigel-coated flasks prepared with a working solution of 1X Ham's F-12 nutrient mix, without supplementation (Invitrogen, Waltham, MA, cat. 11765054), 100 U/mL penicillin-streptomycin (Invitrogen, cat. 15140122), and 2.5% Matrigel (Corning Inc., Corning, NY, cat. 354248) for the first three passages. The 362531-283-R-J2-PDC and 782815-120-R-J1-PDC lines were cultured in 6C/Colon 1B media, which includes advanced DMEM/F-12 (Thermo Fisher Scientific, cat. 12634028), 10 mM HEPES (Thermo Fisher Scientific, cat. 15630080), 1X GlutaMAX supplement (Thermo Fisher Scientific, cat. 35050061), 0.1 mg/mL primocin (InvivoGen, San Diego, CA, cat. ant-pm-2), 10% defined fetal bovine serum, heat inactivated (HyClone Laboratories Inc., Logan, UT, cat. SH30070.03HI), 50% L-WRN conditioned media (ATCC, cat. CRL-3276), 1.25 mM N-Acetyl-L-cysteine (Sigma-Aldrich, cat. A9165), 10 mM nicotinamide (Sigma-Aldrich, cat. N0636), 1X B-27 supplement (Thermo Fisher Scientific, cat. 17504044), 1X N-2 supplement (Thermo Fisher Scientific, cat. 17502048), 50 ng/mL human EGF (Thermo Fisher Scientific, cat. PHG0311), and 10 microM Y-27632 dihydrochloride (Tocris Bioscience, cat. 1254). The K12877-001-R-J1-PDC line was cultured in 6I media, which includes all 6C/Colon 1B media plus 10 ng/mL human FGF-10 (PeproTech, cat. 100-26), 1 ng/mL human FGF-2 (PeproTech, cat. 100-18B), 1 µM prostaglandin E2 (Tocris Bioscience, cat. 2296), […] hydrocortisone (Sigma-Aldrich, cat. H4001), and […] bovine insulin (Sigma-Aldrich, cat. I6634). The K86415-001-R-J1-PDC line was cultured in 6D media, which includes all 6C/Colon 1B media components minus the L-WRN conditioned media. The 485176-168-R4-J1-PDC was cultured in PANC media, which includes all 6C/Colon 1B media plus 100 ng/mL human FGF-10 (PeproTech, cat. 100-26), 500 nM SB-431542 (Selleckchem, cat. S1067), and 10 nM gastrin (Tocris Bioscience, cat. 3006). […]
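Note: spheroids exposed to compound for seven days before viability readout.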

CC(C)n1nc(-c2ccc3oc(N)nc3c2)c2c(N)ncnc21 + C#Cc1c(F)ccc2cc(O)cc(-c3ncc4c(N5CC6CCC(C5)N6)nc(OCC56CCCN5CC(F)C6)nc4c3F)c12
3.7 nM: IC50 (second compound 3.16 µM)
3.71 nM: IC50 (second compound 0.1 µM)
5.3 nM: IC50 (second compound 0.316 µM)
inactive: viability, T/C (second compound 0.0316 µM, first compound 0.000316 µM) 98.7% | viability, T/C (second compound 0.0316 µM, first compound 0.001 µM) 132% | viability, T/C (second compound 0.0316 µM, first compound 0.00316 µM) 90.5% | viability, T/C (second compound 0.0316 µM, first compound 0.01 µM) 15.3% | viability, T/C (second compound 0.0316 µM, first compound 0.0316 µM) 10.9% | viability, T/C (second compound 0.0316 µM, first compound 0.1 µM) 10.4% | viability, T/C (second compound 0.1 µM, first compound 0.000316 µM) 67.8% | viability, T/C (second compound 0.1 µM, first compound 0.001 µM) 123% | viability, T/C (second compound 0.1 µM, first compound 0.00316 µM) 56% | viability, T/C (second compound 0.1 µM, first compound 0.01 µM) 19.4% | viability, T/C (second compound 0.1 µM, first compound 0.0316 µM) 10.4% | viability, T/C (second compound 0.1 µM, first compound 0.1 µM) 9% | viability, T/C (second compound 0.316 µM, first compound 0.000316 µM) 87.8% | viability, T/C (second compound 0.316 µM, first compound 0.001 µM) 114% | viability, T/C (second compound 0.316 µM, first compound 0.00316 µM) 73.9% | viability, T/C (second compound 0.316 µM, first compound 0.01 µM) 20.5% | viability, T/C (second compound 1 µM, first compound 0.000316 µM) 74.8% | viability, T/C (second compound 1 µM, first compound 0.001 µM) 111% | viability, T/C (second compound 1 µM, first compound 0.00316 µM) 85.9% | viability, T/C (second compound 1 µM, first compound 0.01 µM) 29.2% | viability, T/C (second compound 3.16 µM, first compound 0.000316 µM) 109% | viability, T/C (second compound 3.16 µM, first compound 0.001 µM) 104% | viability, T/C (second compound 3.16 µM, first compound 0.00316 µM) 48.4% | viability, T/C (second compound 3.16 µM, first compound 0.01 µM) 30.2% | viability, T/C (second compound 3.16 µM, first compound 0.0316 µM) 9.48% | viability, T/C (second compound 3.16 µM, first compound 0.1 µM) 8.95% | viability, T/C (second compound 10 µM, first compound 0.000316 µM) 56.1% | viability, T/C (second compound 10 µM, first compound 0.001 µM) 72% | viability, T/C (second compound 10 µM, first compound 0.00316 µM) 28.5%
1.58 nM: IC50 (second compound 10 µM)
active: viability, T/C (second compound 0.316 µM, first compound 0.0316 µM) 8.95% | viability, T/C (second compound 0.316 µM, first compound 0.1 µM) 8.66% | viability, T/C (second compound 1 µM, first compound 0.0316 µM) 8.08% | viability, T/C (second compound 1 µM, first compound 0.1 µM) 9.16% | viability, T/C (second compound 10 µM, first compound 0.01 µM) 10.7% | viability, T/C (second compound 10 µM, first compound 0.0316 µM) 6.47% | viability, T/C (second compound 10 µM, first compound 0.1 µM) 4.1%
6.59 nM: IC50 (second compound 1 µM)
5.82 nM: IC50 (second compound 0.0316 µM)
